Assay results reported in patent US10064845B2, “Compositions and methods of treating muscular dystrophy with thromboxane-A2 receptor antagonists” (Cumberland Pharmaceuticals, Inc., priority 2016, dated 2018).

How the values were obtained:
[1] = test system: pressure-overload model of pulmonary arterial hypertension; details: cited from earlier work
dSG KO mice [2] = assay: wire hang in dSG mice; type: in vivo, mouse
Description: (§1) Example 4 utilized West/Carrier Muscular Dystrophy Animal Models (Delta-sarcoglycan knock-out mice (sgcd−/−)). Mice devoid of DSG develop cardiomyopathy and MD with signs of progressive disease such as necrosis, muscular regeneration, inflammation and fibrosis within the first 3 months of life. Mice that are homozygous for the targeted mutation are viable, fertile and normal in size. No gene product (protein) is immunodetected in skeletal muscle microsomal preparations. At 8 weeks of age there is an onset of sudden mortality, with a 50% survival rate at 28 weeks. Elevated creatine kinase serum levels are indicative of striated muscle degeneration. […] At 12 weeks of age, cardiac muscle tissue also begins to show degeneration, inflammatory infiltration and perivascular fibrosis. Myofiber membranes have permeability defects as assessed by Evans blue dye uptake into myofiber cytoplasm. […] A major function of dystrophin is to strengthen the sarcolemma by cross-linking the ECM with the cytoskeleton. […] They work to connect sarcolemma to cytoplasmic actin cytoskeleton. Dysfunction produces membrane instability, elevated [Ca2+]I and disrupted NO signaling. γ- and δ-SG form a core necessary for delivery/retention of other SG to the membrane.
Veh and ife-treated groups were NS tested against each other. N in parentheses. “ife”=ifetroban.
FIG. 8 depicts wire hang time for mice tested.

dSG KO mice [3] = assay: survival of dSG KO mice; type: in vivo, mouse
Description: Applicants explored the possibility that TPr activity may contribute to pathology in muscular dystrophy. In preliminary studies, the effects of blocking TPr activity in a δ-sarcoglycan knockout (dSG KO) mouse model of limb-girdle muscular dystrophy (LGMD). […] The inhibition of LV epicardial fibrosis may have particular applicability to DMD patients, where cardiac fibrosis typically begins in the sub-epicardium of the left ventricular (LV) free wall and progresses to include the remaining LV free wall and septum. […] Therefore, it is believed that TPr activity contributes to pathology in muscular dystrophy. Example 4 utilized West/Carrier Muscular Dystrophy Animal Models (Delta-sarcoglycan knock-out mice (sgcd−/−)). Mice devoid of DSG develop cardiomyopathy and MD with signs of progressive disease such as necrosis, muscular regeneration, inflammation and fibrosis within the first 3 months of life. Mice that are homozygous for the targeted mutation are viable, fertile and normal in size. No gene product (protein) is immunodetected in skeletal muscle microsomal preparations. At 8 weeks of age there is an onset of sudden mortality, with a 50% survival rate at 28 weeks. Elevated creatine kinase serum levels are indicative of striated muscle degeneration. […] Myofiber membranes have permeability defects as assessed by Evans blue dye uptake into myofiber cytoplasm. […]

[4] = test system: δ-sarcoglycan knockout (dSG KO) mouse model of limb-girdle muscular dystrophy; assay: cardiac function (Echo, cardiac output) in dSG KO mice; type: in vivo
Description: (§2) Applicants explored the possibility that TPr activity may contribute to pathology in muscular dystrophy. In preliminary studies, the effects of blocking TPr activity in a δ-sarcoglycan knockout (dSG KO) mouse model of limb-girdle muscular dystrophy (LGMD). […] The inhibition of LV epicardial fibrosis may have particular applicability to DMD patients, where cardiac fibrosis typically begins in the sub-epicardium of the left ventricular (LV) free wall and progresses to include the remaining LV free wall and septum. […] Therefore, it is believed that TPr activity contributes to pathology in muscular dystrophy.
as §1
(§3) While the DSG KO (sgcd−/−) mice lack functional delta-sarcoglycan, the MD phenotype is milder than the human disease. […]

[5] = test system: utrophin/dystrophin double knockout (DKO) mice; assay: wire hang in DKO males; type: in vivo, mouse; details: DKO males at 10 weeks; vs vehicle; FIG. 15
Description: While the DSG KO (sgcd−/−) mice lack functional delta-sarcoglycan, the MD phenotype is milder than the human disease. Since utrophin, a dystrophin-related protein, is able to compensate for the loss of dystrophin, loss of utrophin and dystrophin (DKO) results in a more severe phenotype. […] The mice are difficult to generate and care for, and often die prematurely. Ifetroban treatment was started at 3 weeks upon weaning.
FIG. 1 are photos of a vehicle-treated compared with an ifetroban-treated DKO mouse. FIG. 1A is a photograph of a vehicle-treated DKO Mouse at 10 weeks. FIG. 1B is a photograph of an ifetroban-treated DKO mouse at 10 weeks. The ability to wrap the tail around the wire is dependent on muscle function. A reason the DKO mice are really hard to evaluate in the wire hang is that they have such severe scoliosis that their hind paws are very close to their front paws, so raising their hind paws to get a 4-limbed grip is not difficult despite their affliction.
FIG. 15 are graphs showing wire hang in DKO males at 10 weeks (ifetroban-treated (“ife”) versus vehicle).

dSG KO mice [6] = assay: intestinal histology (H&E) in dSG KO mice; type: in vivo, mouse; details: dSG KO mice vs vehicle-treated dSG KO mice; FIG. 13
Description: as §1, with “membrane. […]” for “membrane.”

[7] = test system: δ-sarcoglycan knockout (dSG KO) mouse model of limb-girdle muscular dystrophy; assay: cardiac histology (Masson's trichrome) in dSG KO mice; type: in vivo
Description: as §2, §1
FIGS. 9A (dSGKO-vehicle) and 9B (DsGKO-ifetroban) show cardiac histology in dSG KO males. Less fibrosis seen in ifetroban treated RV. Shown is Masson's trichrome at 4× for gross histology. […]

[8] = test system: δ-sarcoglycan knockout (dSG KO) mouse model of limb-girdle muscular dystrophy; assay: plasma cardiac troponin I in dSG KO mice; type: in vivo; details: given in drinking water
Description: as §2
Example 4 utilized West/Carrier Muscular Dystrophy Animal Models (Delta-sarcoglycan knock-out mice (sgcd−/−)). Mice devoid of DSG develop cardiomyopathy and MD with signs of progressive disease such as necrosis, muscular regeneration, inflammation and fibrosis within the first 3 months of life. Mice that are homozygous for the targeted mutation are viable, fertile and normal in size. No gene product (protein) is immunodetected in skeletal muscle microsomal preparations. […] Myofiber membranes have permeability defects as assessed by Evans blue dye uptake into myofiber cytoplasm. […]
The term “cTNI” means plasma cardiac troponin I. The term “KO” means knockout. […] Plasma cardiac troponin I (cTNI) is highly specific and sensitive for myocardial tissue and can be measured rapidly. […]

dSG KO mice [9] = assay: spontaneous exercise (voluntary wheel running) in dSG KO mice; type: in vivo, mouse; details: 6 month old dSG KO males; wheel access for 10 days after 4.5M of treatment; FIG. 5
Description: as §1
FIG. 5 provides spontaneous exercise date for 6 month old males. […]

[10] = test system: utrophin/dystrophin double knockout (DKO) mice, a model of severe DMD; assay: survival of utrophin/dystrophin DKO mice; type: in vivo, mouse
Description: as §2
dSG KO mice, chosen for their cardiac phenotype, are a model of LGMD, but DMD which occurs in approximately 1:3500 male births (1), is far more common a disease than LGMD. The mdx mouse model of DMD poorly replicates the shortened life expectancy, cardiac fibrosis, and cardiomyopathy seen in DMD patients. The utrophin/dystrophin DKO model had significant mortality by 10 weeks, although treatment with the TPr antagonist ifetroban led to 100% survival to this predetermined timepoint. Although TPr antagonism may prevent spontaneous death in DMD, due to severe kyphosis and frailty we were not able to obtain much useful cardiac data with the DKO model of DMD.
as §3

[11] = dSG KO mice, given in drinking water, preliminary studies

Row | Structure (SMILES) | cardiac function [1] | right ventricular fibrosis [1] | wire hang time (dSG KO mice [2]; dSG mice at 6 months, FIG. 6) | wire hang time (longest time) (dSG KO mice [2]; male mice at 6 months, FIG. 8) | survival (dSG KO mice [3]) | 3 month Echo data: cardiac dysfunction ([4]; dSG KO males at 3 months, FIG. 3) | decline in cardiac function [4, 11] | cardiac output ([4]; male dSG KO mice at 3 months, FIG. 4, compared to vehicle) | average wire hang time [5] | fibrosis in intestinal tissue (dSG KO mice [6]) | cardiac histology: fibrosis in RV ([7]; dSG KO males, Masson's trichrome 4× (FIG. 9) or 2× (FIG. 10)) | cardiac histology: fibrosis in left and right ventricle ([7]; dSG KO males, Masson's trichrome, 10×, FIG. 11) | formation of cardiac fibrosis [7, 11] | plasma cardiac troponin I levels [8] | spontaneous exercise (voluntary wheel running): skeletal function deficit (dSG KO mice [9]) | 10-week survival ([10]; DKO mice, treatment started at 3 weeks upon weaning) | survival time ([10]; all DKO mice, FIG. 17)
1 | CC(=O)Oc1ccccc1C(=O)O [aspirin] | no effect | no effect |  |  |  |  |  |  |  |  |  |  |  |  |  |  | 
2 | CCCCCNC(=O)c1coc([C@H]2[C@@H](Cc3ccccc3CCC(=O)O)[C@@H]3CC[C@H]2O3)n1 [ifetroban, [1S-(1α,2α,3α,4α)]-2-[[3-[4-[(Pentylamino)carbonyl]-2-oxazolyl]-7-oxabicyclo[2.2.1]hept-2-yl]methyl]-benzenepropanoic acid] | improves cardiac function | dramatically decreases right ventricular fibrosis | improved wire hang time | difficult to measure any difference | significantly improved survival | prevents cardiac dysfunction | prevents a decline in cardiac function | improved similar to WT levels | significantly longer average hang times | less fibrosis | less fibrosis | Less fibrosis | limits the formation of cardiac fibrosis | normalizing elevated plasma cardiac troponin I levels | seen to a less extent | 100% | > 70 days
3 | O=C(O)/C=C/c1ccc(Cn2ccnc2)cc1 [ozagrel] | no effect | no effect |  |  |  |  |  |  |  |  |  |  |  |  |  |  | 
